The record followed here is ChEMBL document CHEMBL1148115, “Malevamide D: isolation and structure determination of an isodolastatin H analogue from the marine cyanobacterium Symploca hydnoides” (J Nat Prod, 2002).

Each structure is given as a SMILES string.

What all share (type): functional, cell-based
For one experiment, the system named is P388. As to the kind of experiment: Cytotoxicity against mouse P388 cells.
Another experiment concerns A549. In words: Cytotoxicity against human A549 cells.
The test system of another experiment is HT-29. In words: Cytotoxicity against human HT-29 cells.
The next experiment concerns SK-MEL-28. In words: Cytotoxicity against human SK-MEL-28 cells.

On to `CC[C@H](C)[C@@H](C(=O)N[C@H](C(=O)N(C)[C@@H](C(C)C)[C@@H](CC(=O)N1CCC[C@H]1[C@H](OC)[C@@H](C)C(=O)O[C@H](CO)Cc1ccccc1)OC)C(C)C)N(C)C` [MALEVAMIDE D], for which the concentration for half-maximal inhibition (IC50) stood at 0.3 nM in the experiment with P388, 0.3 nM in the experiment with A549, 0.3 nM with HT-29 and 0.7 nM in the experiment on SK-MEL-28.

The term IC50 denotes the concentration needed to halve the response being measured. Low values mean greater potency, high ones weaker potency.
